Laboratory results reported in US20090081174A1 (priority 2005, published 2009).
Read-outs that look alike come from different tables or passages of the source.

How the values were obtained:
Plasmopara viticola = experiment: 7-day preventive activity on Plasmopara viticola, leaf application on vines; format: in vivo
Experimental: Leaves of cultivar Merlot vines, grown in vases, in a conditioned environment (20±1° C., 70% relative humidity) are treated by spraying both sides of the leaves with the mixtures under examination dispersed in an aqueous solution containing a 0.3% of tween 20.
After remaining 7 days in a conditioned environment, the plants are infected on the lower side with an aqueous suspension of spores of Plasmopara viticola (200,000 spores per cm^3).
The plants are kept in a humidity saturated environment, at 21° C., for the incubation period of the fungus and, at the end of this period (7 days), the fungicidal activity is evaluated according to an evaluation percentage scale from 100 (healthy plant) to 0 (completely infected plant).
From the data indicated in tables 1-2, it is possible to verify the synergistic effect of the mixtures, consisting of the mixtures being examined, compared with the expected efficacy using the Limpel formula (“Pesticide Science” (1987), vol. 19, pages 309-315): […]
wherein: • E is the fungicidal activity expected, in the absence of synergistic effects, from a mixture obtained by mixing g·x of compound X with g·y of compound Y; • x is the activity of compound X when used alone with a dosage of g·x; • y is the activity of compound Y when used alone with a dosage of g·y. […]

Phytophthora infestans = format: in vivo; conditions: potato plants, scale 100 to 0

Compound	Activity (y) (Plasmopara viticola; listed phosphite salt(s) alone at 250 ppm equivalent phosphorous acid, scale 100 to 0)	Activity (y) (Phytophthora infestans; Table 4: listed phosphite salt(s) alone at 750 ppm equivalent phosphorous acid)	Activity (y) (Phytophthora infestans; Table 5: listed phosphite salt(s) alone at 750 ppm equivalent phosphorous acid)	Activity (y) (Plasmopara viticola; listed salt alone at 500 ppm equivalent phosphorous acid, scale 100 (healthy) to 0 (completely infected))	Activity (y) (Phytophthora infestans; listed salt alone at 750 ppm equivalent phosphorous acid)
O=[PH]([O-])[O-].[Cu+2] [CuHPO3, copper (II) salt of phosphorous acid]	35	12	12		
K2HPO3 [Mixture K2HPO3]				45	5
